Laboratory results from patent US20040138315A1 (priority 2000, published 2004).
Read-outs that look alike come from different tables or passages of the source.

Columns and labels:
[1] = tested on: PMA-induced aggregation of platelet rich plasma (phorbol ester receptor); assay: Phorbol ester, platelet aggregation (461500); type: cell-based, rabbit; conditions: 30 μM, platelet rich plasma, rabbit
Experimental: (§1) Test compounds referred to above were evaluated for inhibition of platelet aggregation induced by adenosine diphosphate, arachidonic acid, phorbol ester and Platelet Activating Factor (PAF) at […]. The following methods were employed in this analysis, and reference compounds for the respective assays are indicated in Appendix 1:
Venous blood obtained from male or female New Zealand derived albino rabbits weighing 2.5-3 kg is mixed with one-tenth volume of trisodium citrate (0.13 M) and centrifuged at room temperature for 10 min at 220 g. Test substance (30 μM)-induced aggregation of the supernatant platelet rich plasma by 50 percent or more (≧50%) within 5 min, relative to control phorbol myristate acetate (PMA, 0.5 μM) response at 37° C. as measured by an optical aggregometer, indicates possible phorbol ester receptor agonist activity.
At a test substance concentration where no significant agonist activity is seen, ability to reduce the PMA (0.5 μM)-induced maximum non-reversible aggregation response by 50 percent or more (>50%) indicates phorbol ester receptor antagonist activity.

[2] = tested on: PAF-acether-induced aggregation of platelet rich plasma (PAF receptor); assay: PAF, platelet aggregation (463010); type: cell-based, rabbit; conditions: 30 μM, platelet rich plasma, rabbit
Experimental: as §1
Venous blood obtained from male or female New Zealand derived albino rabbits weighing 2.5-3 kg is mixed with one-tenth volume of trisodium citrate (0.13 M) and centrifuged at room temperture for 10 min at 220 g. Test Substance (30 μM)-induced aggregation of the supernatant platelet rich plasma by 50 percent or more (≧50%) within 5 min, relative to control 5 nM platelet activating factor-acether (PAF-acether) response at 37[…] as measured by an optical aggregometer, indicates possible PAF receptor agonist activity.
At a test substance concentration where no significant agonist activity is seen, ability to reduce the PAF-acether-induced maximum non-reversible aggregation response by 50 percent or more (≧50%) indicates PAF receptor antagonist activity.

[3] = biological target: T1, cyclooxygenase-2 (human recombinant) (Homo sapiens, UniProt P35354); assay: Cyclooxygenase COX-2 inhibition, recombinant enzyme, PGE2 EIA (118010); type: biochemical; conditions: screened at 10 μM
T1 construct: 118010; host or cells: Spodoptera frugiperda (insect cells)
T1 sequence (P35354 18-604): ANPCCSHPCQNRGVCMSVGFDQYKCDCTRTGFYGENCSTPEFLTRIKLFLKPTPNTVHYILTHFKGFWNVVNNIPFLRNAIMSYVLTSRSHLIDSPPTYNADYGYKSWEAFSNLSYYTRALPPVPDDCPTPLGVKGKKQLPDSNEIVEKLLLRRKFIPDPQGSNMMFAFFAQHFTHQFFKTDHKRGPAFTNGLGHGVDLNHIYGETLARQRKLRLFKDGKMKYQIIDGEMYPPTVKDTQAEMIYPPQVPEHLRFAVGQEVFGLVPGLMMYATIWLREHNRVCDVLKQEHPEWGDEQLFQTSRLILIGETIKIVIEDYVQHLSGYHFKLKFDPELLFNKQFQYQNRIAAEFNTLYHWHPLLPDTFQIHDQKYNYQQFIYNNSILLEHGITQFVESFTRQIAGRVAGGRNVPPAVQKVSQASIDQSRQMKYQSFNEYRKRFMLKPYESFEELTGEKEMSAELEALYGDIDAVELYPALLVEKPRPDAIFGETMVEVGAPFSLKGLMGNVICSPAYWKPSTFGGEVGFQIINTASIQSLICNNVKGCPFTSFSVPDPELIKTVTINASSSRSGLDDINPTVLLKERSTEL
Experimental: (§2) In these assays, in addition to the designations set forth above, IG-05 refers to resorcinol and IG-06 refers to orcinol.
Following centrifugation, substrate conversion to PGE2 was measured by an Amersham EIA kit. Compounds are screened at 10 μM.

[4] = tested on: arachidonic acid-induced aggregation of platelet rich plasma; assay: Arachidonic acid, platelet aggregation (412510); type: cell-based, rabbit; conditions: 30 μM, platelet rich plasma, rabbit
Experimental: as §1
Venous blood obtained from male or female New Zealand derived albino rabbits weighting 2.5-3 kg was mixed with one-tenth volume of trisodeium citrate (0.13M) and centrifuged at room temperature for 10 min at 220 g. Test substance (30 μM)-induced aggregation of the supernatant platelet rich plasma by 50 percent or more (≧50%) within 5 min, relative to 100 μM arachidonic acid response at 37° C. as measured by an optical aggregometer indicates possible agonist activity.
At a test substance concentration where no significant agonist activity is seen, ability to reduce the arachidonic acid-induced maximum non-reversible aggregation response by 50 percent or more (>50%) was indicative of antagonist activity.

[5] = tested on: adenosine diphosphate-induced aggregation of platelet rich plasma (ADP receptor); assay: Adenosine diphosphate, platelet aggregation (404010); type: cell-based, rabbit; conditions: 30 μM, platelet rich plasma, rabbit
Experimental: as §1
Venous blood obtained from male or female New Zealand derived albino rabbits weighing 2.5-3 kg was mixed with one-tenth volume of trisodium citrate (0.13 M) and centrifuged at room temperature for 10 min at 220 g. Test substance (30 EM)-induced aggregation of the supernatant platelet rich plasma by 50 percent or more (>50%) more relative to 1.2 μM adenosine diphosphate control response at 37° C. as mearsured by an optical aggregometer, indicates possible ADP receptor agonist activity.
At a test substance concentration where no significant agonist activity is seen, ability to reduce the adenosine diphosphate-induced maximum non-reversible aggregation response by 50 percent or more (≧50%) was indicative of ADP receptor antagonist activity.

cyclooxygenase COX-1 = biological target: T2, cyclooxygenase COX-1 (Homo sapiens, UniProt P23219); assay: Cyclooxygenase COX-1 inhibition in human platelets, PGE2 EIA (116010); type: cell-based; conditions: screened at 10 μM
T2 construct: host or cells: human platelets
T2 sequence (P23219 24-599): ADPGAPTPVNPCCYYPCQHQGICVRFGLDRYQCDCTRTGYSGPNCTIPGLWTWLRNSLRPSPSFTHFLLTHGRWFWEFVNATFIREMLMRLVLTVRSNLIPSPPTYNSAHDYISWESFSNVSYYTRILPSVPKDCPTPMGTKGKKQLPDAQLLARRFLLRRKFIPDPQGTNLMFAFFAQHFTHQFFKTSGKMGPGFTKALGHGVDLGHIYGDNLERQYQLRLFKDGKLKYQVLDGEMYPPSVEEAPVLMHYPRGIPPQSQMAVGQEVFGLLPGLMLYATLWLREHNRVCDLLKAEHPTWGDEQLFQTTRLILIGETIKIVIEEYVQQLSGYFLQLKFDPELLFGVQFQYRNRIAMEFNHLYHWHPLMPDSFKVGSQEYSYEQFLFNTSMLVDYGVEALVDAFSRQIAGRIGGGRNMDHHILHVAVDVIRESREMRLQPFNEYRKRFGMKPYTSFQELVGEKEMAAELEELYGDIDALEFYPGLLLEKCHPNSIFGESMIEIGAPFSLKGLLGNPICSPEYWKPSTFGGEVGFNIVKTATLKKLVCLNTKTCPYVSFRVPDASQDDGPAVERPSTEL
Experimental: as §2
To assess COX-1 inhibition, test compound and/or vehicle was incubated with human platelets (5×10^7/well) for 15 minutes at5 37° C. Calcium ionophore A23187 (10 μM) was added to induce the arachidonic acid cascade. After another 15 minutes incubation at 37° C., PGE2 levels in the supernatant were quantiated using the Amersham EIA kit. Compounds were screened at 10 μM.

thromboxane A2 synthase [6] = biological target: T3, thromboxane A2 synthase (Oryctolagus cuniculus, UniProt G1TAZ9); assay: Thromboxane A2 synthase inhibition, TXB2 radioimmunoassay (194000); type: biochemical, rabbit
T3 sequence (G1TAZ9 1-530): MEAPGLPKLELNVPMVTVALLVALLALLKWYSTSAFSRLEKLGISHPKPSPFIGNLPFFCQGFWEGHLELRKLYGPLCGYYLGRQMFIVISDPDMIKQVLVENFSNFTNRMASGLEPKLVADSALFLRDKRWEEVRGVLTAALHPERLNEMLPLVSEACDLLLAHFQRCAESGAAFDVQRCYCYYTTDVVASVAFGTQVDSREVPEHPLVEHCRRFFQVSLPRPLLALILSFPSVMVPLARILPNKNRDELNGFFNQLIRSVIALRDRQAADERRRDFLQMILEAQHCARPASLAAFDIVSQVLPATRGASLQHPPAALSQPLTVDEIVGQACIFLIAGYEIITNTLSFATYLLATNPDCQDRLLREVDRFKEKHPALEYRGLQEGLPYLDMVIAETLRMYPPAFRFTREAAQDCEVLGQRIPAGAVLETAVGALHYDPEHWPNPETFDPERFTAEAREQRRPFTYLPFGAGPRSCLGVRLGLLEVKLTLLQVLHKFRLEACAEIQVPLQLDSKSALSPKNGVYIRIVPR
Experimental: Test compounds (IG-1 through IG-11) were evaluated for their ability to inhibit cyclooxygenase COX-1, cyclooxygenase COX-2, and thromboxane synthase. In these assays, in addition to the designations set forth above, IG-05 refers to resorcinol and IG-06 refers to orcinol.
To assess Thromboxane A2 synthase, thromboxane A2 synthase isolated from a microsomal fraction of rabbit platelets by conventional centrifugation was used. The test compound and/or vehicle was incubated with 1:200 dilution of thromboxane A2 synthase and 5 ng prostaglandin G2 as substrate in Tris buffer pH 7.5 for 30 minutes at 37° C. The thromboxane A2 formed is immediately converted to thromboxane B2, which was quantitated by a radioimmunoassay. Compounds are screened at 100 μM.

thromboxane A2 synthase [7] = biological target: T3, thromboxane A2 synthase; conditions: reference compound, historical; read-out: Historical IC50, Thromboxane Synthetase; cited from earlier work

| SMILES | melting point [°C] | ANT. (antagonist response), phorbol ester platelet aggregation [1] [%] | AG. (agonist response), phorbol ester platelet aggregation ([1]; relative to PMA 0.5 μM) [%] | ANT. (antagonist response), PAF platelet aggregation [2] [%] | AG. (agonist response), PAF platelet aggregation ([2]; relative to 5 nM PAF-acether) [%] | COX-2 inhibition (in words) [3] | ANT. (antagonist response), arachidonic acid platelet aggregation [4] [%] | AG. (agonist response), arachidonic acid platelet aggregation ([4]; relative to 100 μM arachidonic acid) [%] | ANT. (antagonist response), ADP platelet aggregation [5] [%] | AG. (agonist response), ADP platelet aggregation ([5]; relative to […] ADP) [%] | COX-1 inhibition (in words) (cyclooxygenase COX-1) | Thromboxane synthase inhibition (in words) (thromboxane A2 synthase [6]; screened at 100 μM) | IC50 (thromboxane A2 synthase [6]; reference compound, concurrent, read-out: Concurrent IC50, Thromboxane Synthetase) [nM] | IC50 (thromboxane A2 synthase [7]) [nM] |
| --- | --- | --- | --- | --- | --- | --- | --- | --- | --- | --- | --- | --- | --- | --- |
| Cc1c(O)cc(C(C)(C)CCCC(C)C)cc1O [IG-10, 2-Methyl-5-(1,1,5-trimethylhexyl)resorcinol] | 145 to 147 | 9 | 0 | 6 | 0 | not COX-2 | 100 | 0 | 17 | 0 | potent inhibitors of COX-1 | significantly inhibit thromboxane synthase | – | – |
| O=C(O)c1ccc(OCCn2ccnc2)cc1 [Dazoxiben, reference compound] | – | – | – | – | – | – | – | – | – | – | – | – | 61 | 22 |
